The record followed here is patent US8158656B2, “2-indolinone derivatives as multi-target protein kinase inhibitors and histone deacetylase inhibitors” (Shenzhen Chipscreen Biosciences Ltd., priority 2008, dated 2012).

Assay [1] concerns Raji. Briefly: Tumor cell proliferation (MTS), Raji. As to conditions: Homo sapiens, 72 hours. Type of assay: cell-based. The procedure:
(§1) Measurement of in vivo cell proliferation:
(§2) Tumor cells were trypsinized and plated into 96-well plates at 3,000 per well and incubated in complete medium with 10% FBS for 24 hours. Compounds were added over a final concentration range of 100 μmol/L to 100 nmol/L in 0.1% DMSO and incubated for 72 hours in complete medium. The effects on proliferation were determined by addition of MTS reagent (Promega) according to the instruction, incubation for 2 hours at 37° C. in CO2 incubator, and record the absorbance at 490 nm using an ELISA plate reader.

Assay [2] has as its system Class I HDAC. Briefly: P21 reporter assay in HeLa cells. Type of assay: cell-based, human. The settings on record: for Class I HDAC (P21 reporter assay) % Max Resp of CS055 at 3 μM: relative to CS055 at 3 μM. On the procedure:
(§3) HDAC subtype selectivity inhibition assay of tested compounds was carried out by several reporter gene assays experiments. Briefly, HeLa cells were seeded in 96-well plates the day before transfection to give a confluence of 50-80%. Cells were transfected with one of reporter gene plasmid containing a promoter sequence or response element upstream of a luciferase gene construct using FuGene6 transfection reagent according to the manufacturer's instruction (Roche). The promoters or response elements including p21-promoter, gdf11-promoter, MEF-binding element (MEF2), Nur77-promoter were fused upstream to the luciferase gene reporter construct. For normalizing the transfection efficiency, a GFP expression plasmid was cotransfected. Cells were allowed to express protein for 24 hours followed by addition of individual compounds or the vehicle (DMSO). 24 hours later the cells were harvested, and the luciferase assay and GFP assay were performed using corresponding assay kits according to the manufacturer's instructions (Promega).

Assay [3] deals with Hut-78. Kind of assay: Tumor cell proliferation (MTS), Hut-78. The class given is cell-based. As to conditions: Homo sapiens, HuT78, Hut-78, 72 hours. The procedure: as §1, §2
The target of assay [4] is T1, c-Kit (Homo sapiens, UniProt P10721).
T1 construct: purchased Cell Signaling
Briefly: c-KIT kinase ELISA bioassay. The class given is biochemical. As to conditions: ELISA kinase assay, 20 μM ATP. On the procedure: This assay is used to measure in vitro kinase activity of c-KIT in an ELISA assay.
• 1. Streptavidin coated, 96-well, white plate • 2. Phospho-Tyrosine Monoclonal Antibody (P-Tyr-100) (Cell Signaling) • 3. HRP-labeled anti-mouse IgG (Upstate) • 4. HTScan™ Tyrosine Kinase Buffer (4×) • 5. DTT (1000×. 1.25 M) • 6. ATP (10 mM) • 7. KDR (Tyr996) Biotinylated Peptide Substrate (Cell Signaling) • 8. c-KIT Kinase (recombinant, human) (Cell Signaling) • 9. Wash Buffer: 1× PBS, 0.05% Tween-20 (PBS/T) • 10. Bovine Serum Albumin (BSA) • 11. Stop Buffer: 50 mM EDTA pH 8 • 12. Enhanced chemiluminescence (ECL) (Amersham) Procedure for performing the assay in 96-well plate: • 1. Add 10 μl 10 mM ATP to 1.25 ml 6 μM substrate peptide. Dilute the mixture with dH20 to 2.5 ml to make 2× ATP/substrate cocktail ([ATP]=40 μM, [substrate]=3 μm). • 2. Immediately transfer enzyme from −80° C. to ice. Allow enzyme to thaw on ice. • 3. Microcentrifuge briefly at 4° C. to bring liquid to the bottom of the vial. Return immediately to ice. • 4. Add 10 μl of DTT (1.25 M) to 2.5 ml of 4× HTScan™ Tyrosine Kinase Buffer (240 mM HEPES pH 7.5, 20 mM MgCl2, 20 mM MnCl2, 12 μM Na3VO4) to make DTT/Kinase buffer. • 5. Transfer 1.25 ml of DTT/Kinase buffer to enzyme tube to make 4× reaction cocktail ([enzyme]=4 ng/μL in 4× reaction cocktail). • 6. Incubate 12.5 μl of the 4× reaction cocktail with 12.5 μl/well of prediluted compound of interest (usually around 10 μM) for 5 minutes at room temperature. • 7. Add 25 μl of 2× ATP/substrate cocktail to 25 μl/well preincubated reaction cocktail/compound. Final Assay Conditions for a 50 μl Reaction: • 60 mM HEPES pH 7.5 • 5 mM MgCl2 • 5 mM MnCl2 • 3 μM Na3VO4 • 1.25 mM DTT • 20 μM ATP • 1.5 μM peptide • 100 ng c-KIT Kinase • 8. Incubate reaction plate at room temperature for 30 minutes. • 9. Add 50 μl/well Stop Buffer (50 mM EDTA, pH 8) to stop the reaction. • 10. Transfer 25 μl of each reaction and 75 μl dH2O/well to a 96-well streptavidincoated plate and incubate at room temperature for 60 minutes. • 11. Wash three times with 200 μl/well PBS/T • 12. Dilute primary antibody, Phospho-Tyrosine Monoclonal Antibody (P-Tyr-100), 1:1000 in PBS/T with 1% BSA. Add 100 μl/well of primary antibody. • 13. Incubate at room temperature for 60 minutes. • 14. Wash three times with 200 μl/well PBS/T • 15. Dilute HRP labeled anti-mouse IgG 1:500 in PBS/T with 1% BSA. Add 100 μl/well diluted antibody. • 16. Incubate at room temperature for 30 minutes. • 17. Wash five times with 200 μl/well PBS/T. • 18. Add 100 μl/well ECL Solution. • 19. Detect luminescence with appropriate Plate Reader. Flt3 Bioassay
In general terms: An ELISA detects its analyte on a solid surface through an enzyme-linked reagent.

The subject of assay [5] is HDAC4/5. Briefly: MEF2 reporter assay in HeLa cells. Type of assay: cell-based, human. The settings on record: for HDAC4/5 (MEF2 reporter assay) % Max Resp of CS055 at 3 μM: relative to CS055 at 3 μM. The procedure:
as §3
For orientation: In a reporter assay the amount or activity of a reporter protein is the signal.

The test system of assay [6] is Mo7e cells (SCF dependent). Briefly: c-Kit ligand (SCF) dependent cell proliferation. Type of assay: cell-based. As to conditions: SCF 50 ng/ml, 72 hours, MTS. The procedure:
SCF dependent cell proliferation:
Mo7e cells (SCF dependent) were plated into 96-well plates at 15000 per well and incubated in 1640 medium with 10% FBS and SCF (50 ng/ml) for 24 hours. Compounds were added and incubated for 72 hours at 37° C. in CO2 incubator. The effects on proliferation were determined by addition of MTS reagent (Promega) according to the instruction, incubation for 2 hours at 37° C. in CO2 incubator, and record the absorbance at 490 nm using an ELISA plate reader.

In assay [7] the test system is PDGFRβ NIH-3T3 cells. Kind of assay: PDGF ligand-dependent cell proliferation. Type of assay: cell-based. As to conditions: Mus musculus, NIH3T3; NIH-3T3 expressing human PDGFRβ, PDGF BB 50 ng/ml, 72 hours, MTS. The procedure:
Measurement of in vivo inhibition on receptor ligand-dependent cell proliferation: PDGF dependent cell proliferation:
NIH-3T3 mouse fibroblasts cell line engineered to stably express human PDGFRβ was constructed and used to evaluate PDGF dependent cell proliferation. PDGFRβ NIH-3T3 cells were plated into 96-well plates at 5,000 per well and incubated with serum-free medium for 24 hours. Compounds and PDGF BB (50 ng/ml) were added and incubated for 72 hours in serum-free medium. The effects on proliferation were determined by addition of MTS reagent (Promega) according to the instruction, incubation for 2 hours at 37° C. in CO2 incubator, and record the absorbance at 490 nm using an ELISA plate reader.

The structures appear in SMILES notation.

T1 sequence (P10721 26-976): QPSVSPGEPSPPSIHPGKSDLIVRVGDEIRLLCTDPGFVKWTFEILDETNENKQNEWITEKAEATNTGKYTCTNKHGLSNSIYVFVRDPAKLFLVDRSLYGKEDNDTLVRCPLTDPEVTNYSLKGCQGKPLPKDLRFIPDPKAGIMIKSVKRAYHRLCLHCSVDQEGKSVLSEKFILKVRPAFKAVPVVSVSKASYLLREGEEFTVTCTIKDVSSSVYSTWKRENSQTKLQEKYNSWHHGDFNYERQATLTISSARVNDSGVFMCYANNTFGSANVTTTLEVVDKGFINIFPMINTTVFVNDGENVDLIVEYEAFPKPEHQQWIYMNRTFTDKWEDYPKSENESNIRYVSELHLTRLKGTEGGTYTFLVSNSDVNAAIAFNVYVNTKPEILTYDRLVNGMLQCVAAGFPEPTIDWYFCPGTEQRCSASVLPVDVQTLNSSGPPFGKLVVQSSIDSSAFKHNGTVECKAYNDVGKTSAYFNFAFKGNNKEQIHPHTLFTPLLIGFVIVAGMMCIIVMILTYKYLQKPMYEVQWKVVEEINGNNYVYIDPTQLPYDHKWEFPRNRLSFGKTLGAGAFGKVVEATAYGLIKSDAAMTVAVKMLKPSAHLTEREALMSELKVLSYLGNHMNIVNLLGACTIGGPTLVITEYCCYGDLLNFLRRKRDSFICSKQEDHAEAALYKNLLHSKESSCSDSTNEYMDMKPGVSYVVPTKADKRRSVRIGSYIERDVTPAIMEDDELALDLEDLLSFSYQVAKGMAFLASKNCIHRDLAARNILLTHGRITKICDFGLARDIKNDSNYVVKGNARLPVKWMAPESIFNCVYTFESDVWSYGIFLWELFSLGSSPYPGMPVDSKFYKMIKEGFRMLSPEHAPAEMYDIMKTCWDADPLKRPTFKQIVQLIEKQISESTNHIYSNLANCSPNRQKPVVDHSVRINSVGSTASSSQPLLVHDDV

As to `Cc1[nH]c(/C=C2\C(=O)Nc3ccc(F)cc32)c(C)c1C(=O)NCCNc1ccc(C(=O)Nc2ccccc2N)cn1` [Example 3, (Z)-N-(2-aminophenyl)-6-(2-(2-((5-fluoro-2-oxoindolin-3-ylidene)methyl)-3,5-dimethyl-1H-pyrrole-4-carboxamido)ethylamino)nicotinamide], the GI50 (as a rule, the concentration at which growth is held to half of that of the control) in assay [1] was 3.45 µM; in assay [3], 1.77 µM; in assay [6] it was 126 nM; in assay [7], more than 1000 nM. For the same compound, the results for the EC50 in assay [2] (24 hours) and in assay [5] (24 hours) were 2300 nM and 2200 nM, respectively. The “Class I HDAC (P21 reporter assay) % Max Resp of CS055 at 3 μM” value in assay [2] amounted to 131.7%. Further, half-maximal inhibition in assay [4] (IC50) was put at 157 nM. Moreover, in assay [5], the “HDAC4/5 (MEF2 reporter assay) % Max Resp of CS055 at 3 μM” value turned out to be 83.2%.

With `Cc1[nH]c(/C=C2\C(=O)Nc3ccc(F)cc32)c(C)c1C(=O)NCCCCNc1ccc(C(=O)Nc2ccc(F)cc2N)cn1` [Example 19, (Z)-N-(2-amino-4-fluorophenyl)-6-(4-(2-((5-fluoro-2-oxoindolin-3-ylidene)-methyl)-3,5-dimethyl-1H-pyrrole-4-carboxamido)butylamino)nicotinamide], the GI50 is more than 60 µM in assay [1], more than 60 µM in assay [3], 42 nM in assay [6] and more than 1000 nM in assay [7]. Besides, the “Class I HDAC (P21 reporter assay) % Max Resp of CS055 at 3 μM” value in assay [2] is 2.3%. For the same compound, in assay [4], the IC50 – broadly, the concentration at which inhibition is half-maximal – is 65 nM. Moreover, the “HDAC4/5 (MEF2 reporter assay) % Max Resp of CS055 at 3 μM” value in assay [5] worked out at 1.9%.

With `Cc1[nH]c(/C=N/N=C2\C(=O)Nc3ccc(F)cc32)c(C)c1C(=O)NCCCNc1ccc(C(=O)Nc2ccc(F)cc2N)cn1` [Example 17, N-(2-amino-4-fluorophenyl)-6-(3-(2-(((5-fluoro-2-oxoindolin-3-ylidene)-hydrazono)methyl)-3,5-dimethyl-1H-pyrrole-4-carboxamido)propylamino)nicotinamide], the GI50 in assay [1] is more than 60 µM; in assay [3], more than 60 µM; in assay [6] it was more than 1000 nM; in assay [7], more than 1000 nM. In assay [2], the “Class I HDAC (P21 reporter assay) % Max Resp of CS055 at 3 μM” value turned out to be 3.4%. In assay [4], this compound had an IC50 of more than 1000 nM. In addition, in assay [5], the “HDAC4/5 (MEF2 reporter assay) % Max Resp of CS055 at 3 μM” value is given as 10.8%.

Take `Cc1[nH]c(/C=N/N=C2\C(=O)Nc3ccc(F)cc32)c(C)c1C(=O)NCCNc1ccc(C(=O)Nc2ccccc2N)cn1` [Example 4, N-(2-aminophenyl)-6-(2-(2-(((5-fluoro-2-oxoindolin-3-ylidene)hydrazono)-methyl)-3,5-dimethyl-1H-pyrrole-4-carboxamido)ethylamino)nicotinamide]: the GI50 in assay [1] was more than 60 µM; in assay [3], more than 60 µM; in assay [6], more than 1000 nM; in assay [7] it was more than 1000 nM. Also, the “Class I HDAC (P21 reporter assay) % Max Resp of CS055 at 3 μM” value in assay [2] worked out at 3.3%. Also, the concentration for half-maximal inhibition (IC50) in assay [4] was more than 1000 nM. Besides, the “HDAC4/5 (MEF2 reporter assay) % Max Resp of CS055 at 3 μM” value in assay [5] came out at 4.9%.
